Consider seven compounds from patent US10093675B2, “6,8-disubstituted-9-(heterocyclyl)purines, compositions containing these derivatives and their use in cosmetic and medicinal applications” (USTAV EXPERIMENTALNI BOTANIKY AV CR, V.V.I., priority 2014, dated 2018).

Where two headings read alike, the source gives them in different places.

Series [1] concerns normal diploid fibroblasts BJ. Kind of series: In vitro cytotoxic activity (Calcein AM), BJ. Format: cell-based, human. To be noted: 72 hours, read-out: Cell line tested/IC50 (μmol/L) BJ. The text has this: (§1) Because toxic compounds negatively influence metabolic processes of cells, many standard cytotoxicity assays are based on measurement of metabolisation rate of various artificial substrates. Resulting product is then quantified, for example, by means of spectrometry. The assays can be easily modified for use in 96-well plates. For evaluation of cytotoxicity of the […] of this invention, a microtiter assay based on quantification of metabolisation of Calcein AM was used. The assay is widely used in drug screening programs and in chemosensitivity testing. In live cells, Calcein AM is enzymatically hydrolysed and accumulation of resulting calcein is manifested by green fluorescence.
(§2) The following human cell lines were used for routine screening of the compounds: normal diploid fibroblasts BJ, T-lymphoblastic leukemia cell line CEM, promyelocytic leukemia cell line HL-60, erytroid leukemia cell line K-562, breast carcinoma cell line MCF-7, osteosarcoma cell line HOS and melanoma cell line G-361. The cells were maintained in Nunc/Corning 80 cm^2 plastic tissue culture flasks and cultured in cell culture medium (DMEM with 5 g/l glucose, 2 mM glutamine, 100 U/ml penicillin, 100 mmg/ml streptomycin, 10% fetal calf serum and sodium bicarbonate). The cell suspensions were prepared and diluted according to the particular cell type and the expected target cell density (2.500-30.000 cells per well based on cell growth characteristics) and pipetted (80 μl) into 96-well plates. Inoculates were allowed a pre-incubation period of 24 hours at 37° C. and 5% CO2 for stabilization. Tested compound was added in total volume of 20 μl of water at time zero. Usually, test compound was evaluated at six 3-fold dilutions. In routine testing, the highest concentration tested was 100 μM, but it could have been adjusted because of limited solubility of a compound. All drug concentrations were tested in triplicates.
(§3) Incubations of cells with the test compounds lasted for 72 hours at 37° C., in 5% CO2 atmosphere and 100% humidity. At the end of incubation period Calcein AM in PBS was added into final concentration of 1 μg/ml. After another 1 hour of incubation fluorescence (FD) was measured with the Labsystem FIA Reader Fluoroscan Ascent (UK). Growth inhibition (GI) was estimated using the following equitation: GI=(mean FDdrug exposed wells−mean FDblank)/(mean FDcontrol wells−mean FDblank)×100%. The GI50 value, the drug concentration causing 50% reduction of Calcein AM conversion, was calculated from the obtained dose response curves.

For series [2], the system named is erytroid leukemia cell line K-562. Kind of series: In vitro cytotoxic activity (Calcein AM), K-562. Format: cell-based, human. To be noted: read-out: Cell line tested/IC50 (μmol/L) K-562.
From the text: as §1, §2, §3

In series [3] the test system is T-lymphoblastic leukemia cell line CEM. In words: In vitro cytotoxic activity (Calcein AM), CEM. Type of series: cell-based, human. To be noted: 72 hours, read-out: Cell line tested/IC50 (μmol/L) CEM.
From the text: as §1, §2, §3

For series [4], the system named is excised wheat leaf tips (Triticum aestivum cv. Hereward). In words: Senescence inhibition on winter wheat leaf segments (retention of chlorophyll). Type of series: in vivo. To be noted: 10^−4 mol/L; 96 hours in the dark; activity of kinetin set at 100%. Here is the method: (§4) Seeds of winter wheat, Triticum aestivum cv. Hereward, were washed under running water for 24 hours and then sown on vermiculite soaked with Knop's solution. They were placed in the grown chamber at 25° C. with a 16/8 hours light period at […]. After 7 days, the first leaf was fully developed and the second leaf had started to grow. A tip section of the first leaf, approximately 35 mm long, was removed from 5 seedlings and trimmed slightly to a combined weight of 100 mg. The basal ends of the five leaf tips were placed in the wells of a microtiter polystyrene plate containing […] of a cytokinin solution each. The entire plate was inserted into a plastic box lined with paper tissues soaked in distilled water to prevent leaf sections from drying out. After 96 hours incubation in the dark at 25° C., the leaves were removed and chlorophyll extracted by heating at 80 C for 10 min in 5 ml of 80% ethanol (v/v). The sample volume was then restored to 5 ml by the addition of 80% ethanol (v/v). The absorbance of the extract was recorded at 665 nm. In addition, chlorophyll extracts from fresh leaves and leaf tips incubated in deionized water were measured. From the obtained data, the concentration with highest activity was selected for each compound tested. Relative activity of the compound at this concentration was calculated (see Table 6 below). The activity obtained for 10^−4 M kinetin (Kin) was set as 100%. The values shown are means of five replicates and the whole experiment was repeated twice.
The compounds to be tested were dissolved in dimethylsulfoxide (DMSO) and the solution brought up to 10^−3 M with distilled water. […] As summarized in Table 6 below, the presence of C-8 substitutent was beneficial and led to increase of antisenescent properties.

The test system of series [5] is Human diploid fibroblast BJ. In words: In vitro cytotoxic activity (MTT). Format: cell-based. To be noted: 72 hours incubation; concentration causing 20% decrease in mitochondrial dehydrogenase activity. Here is the method:
MTT (metabolic tetrazolium toxicity) assay is a standard colorimetric assay for evaluation of cytotoxicity. Mitochondrial dehydrogenase activity converts yellow MTT into violet formazan which is measured by means of spectrometry.
Human diploid fibroblast BJ (passage 18-22) were seeded into 96-well plate (5.000 cells per well). After 6 hours cultivation medium (DMEM with 5 g/l glucose, 2 mM glutamine, 100 U/ml penicillin, 100 mmg/ml streptomycin, 10% fetal calf serum and sodium bicarbonate) was replaced with the cultivation medium containing test compounds in concentration range of 0-200 µM. Highest concentration was adjusted if the solubility of the compound was limiting. Every concentration was tested in pentaplicate. MTT was added to the cells after 72 hours incubation (final concentration 0.5 mg/ml) and incubation continued for another 3 hours. MTT was solubilised by DMSO and absorbance at 570 nm was measured. Growth inhibition (GI) was estimated using the following equitation: GI=(mean A drug exposed wells−mean Ablank/mean Acontrol wells−mean Ablank)×100%. The GI20 value, the drug concentration causing 20% decrease in mitochondrial dehydrogenase activity, was calculated from the obtained dose response curves.

Series [6] concerns detached leaves of Triticum aestivum cv. Hereward. Kind of series: Membrane lipid peroxidation (MDA, TBA method) in detached wheat leaves during dark senescence. Format: in vivo. To be noted: four days in the dark, Control 18.9 (±2.2). Here is the method:
A typical symptom associated with senescence as a direct consequence of increased reactive oxygen species is lipid peroxidation. Therefore the levels of MDA, a decomposition product of lipid peroxidation, were measured in detached wheat leaves that were exposed to the prepared novel derivatives and kinetin for four days in the dark as described in Example 8. MDA levels were measured using a thiobarbituric acid (TBA) method. In detail, 100 mg of fresh plant material was homogenized by high speed shaking in a ball mill (MM301, Retsch, Germany) with 1 mL of 80% methanol. The crude extract was centrifuged at 10,000×g for 5 min, and 100 μL aliquot of supernatant was vortexed with 100 μL of 0.5% (w/v) TBA containing 0.1% (w/v) trichloroacetic acid, and the resulting solution was then incubated for 30 min at 95° C. The samples were quickly cooled on ice and recentrifuged for 5 min at 1000×g. The absorbance of supernatant was measured at 532 nm with background subtraction at 600 nm and the amount of MDA-TBA complex was calculated from the coefficient of absorbance 155 mM^−1cm^−1.
as §4

In series [7] the test system is cytokinin-dependent tobacco callus Nicotiana tabacum L. cv. Wisconsin 38. In words: Plant cell division: growth of cytokinin-dependent tobacco callus. Type of series: cell-based. To be noted: for Activity (%); (s.d.): relative activity at concentration with highest activity, 10^−6 M kinetin set at 100%; for Concentration with highest activity (mol/l): tobacco callus fresh weight increase after four weeks, tested 10^−8 M to 10^−4 M.

Series [8] has as its system osteosarcoma cell line HOS. In words: In vitro cytotoxic activity (Calcein AM), HOS. Type of series: cell-based, human. To be noted: 72 hours, read-out: Cell line tested/IC50 (μmol/L) HOS.
From the text: as §1, §2, §3

In a further series the test system is melanoma cell line G-361. Kind of series: In vitro cytotoxic activity (Calcein AM), G-361. Type of series: cell-based, human. To be noted: read-out: Cell line tested/IC50 (μmol/L) G-361.
From the text: as §1, §2, §3

The subject of series [9] is breast carcinoma cell line MCF-7. Kind of series: In vitro cytotoxic activity (Calcein AM), MCF-7. Type of series: cell-based, human. To be noted: read-out: Cell line tested/IC50 (μmol/L) MCF7.
From the text: as §1, §2, §3

`C/C(=C\CNc1ncnc2c1nc(Cl)n2C1CCCCO1)CO` (stereo not drawn) [Compound 5, (E)-8-Chloro-6-(4-hydroxy-3-methylbut-2-en-1-ylamino)-9-(tetrahydropyran-2-yl)-9H-purine]: the IC50 in [1] (Homo sapiens, Fibroblast) was > 50 µmol/L; in series [2] (Homo sapiens, K562, 72 hours), > 50 µmol/L; in series [3] (Homo sapiens), > 50 µmol/L; in series [8] (Homo sapiens) it was > 50 µmol/L; in the series on melanoma cell line G-361 (Homo sapiens, G-361, 72 hours) it was > 50 µmol/L; in [9] (Homo sapiens, MCF7, 72 hours), > 50 µmol/L. In series [4], the “Activity (%) (s.d.), retention of chlorophyll” value (“Activity (%) (s.d.), retention” below) is on record as 118 (±5) %. In [5], the “GI20” value was >100 µM. The “MDA (nmol/g FW)” value in series [6] was 13.2 (±1.5) nmol/g FW. Moreover, the “Activity (%); (s.d.)” value in series [7] was 124 (±6) %.
On to `COc1cccc(CNc2ncnc3c2nc(Br)n3C2CCCCO2)c1` (stereo not drawn) [Compound 28], for which the IC50 (in series [1]; in series [2] (72 hours); in series [3]; in [8]; in the series on melanoma cell line G-361 (72 hours); in series [9] (72 hours)) was > 50 µmol/L in each case. In addition, in series [4], the “Activity (%) (s.d.), retention” value is 126 (±7) %. Further, the “GI20” value in [5] is >100 µM. Besides, in [7], the “Activity (%); (s.d.)” value is reported as 107 (±2) %. For the same compound, in series [7], the “Concentration with highest activity (mol/l)” value (“Concentration” below) is 10^−6-10^−4 mol/l.
With `Fc1cccc(CNc2ncnc3c2nc(Cl)n3C2CCCCO2)c1` (stereo not drawn) [Compound 7], the IC50 in series [1] was > 100 µmol/L; in series [2] (72 hours) it was > 50 µmol/L; in [3] it was > 100 µmol/L; in [8], > 100 µmol/L; with melanoma cell line G-361 (72 hours), > 100 µmol/L; in [9] (72 hours) it was > 100 µmol/L. For the same compound, the “Activity (%) (s.d.), retention” value in [4] was 110 (±2) %. For the same compound, the “GI20” value in series [5] was >200 µM. Besides, the “Activity (%); (s.d.)” value in series [7] is 114 (±5) %. For the same compound, the “Concentration” value in series [7] is on record as 10^−6-10^−4 mol/l.
For `Oc1cccc(CNc2ncnc3c2nc(Cl)n3C2CCCCO2)c1` (stereo not drawn) [Compound 9], the IC50 (in series [1]; in series [2] (72 hours); in series [3]; in series [8]; in the series on melanoma cell line G-361 (72 hours); in series [9] (72 hours)) was > 50 µmol/L in each case. Besides, the “Activity (%) (s.d.), retention” value in series [4] was 115 (±4) %. For the same compound, the “GI20” value in series [5] was >100 µM. In series [6], the “MDA (nmol/g FW)” value is 12.4 (±1.3) nmol/g FW. In series [7], the “Activity (%); (s.d.)” value is recorded as 108 (±3) %. In [7], the “Concentration” value was 10^−6-10^−4 mol/l.
Take `COc1cccc(CNc2ncnc3c2nc(Cl)n3C2CCCCO2)c1` (stereo not drawn) [Compound 8]: the IC50 (in [1]; in [2] (72 hours); in series [3]; in series [8]; in the series with melanoma cell line G-361 (72 hours); in [9] (72 hours)) was > 100 µmol/L in each case. Moreover, the “Activity (%) (s.d.), retention” value in series [4] was 125 (±6) %. In addition, the “GI20” value in [5] was >200 µM. In addition, the “Activity (%); (s.d.)” value in series [7] was 119 (±7) %. For the same compound, in series [7], the “Concentration” value is given as 10^−6-10^−4 mol/l.
On to `COc1nc2c(NCc3ccco3)ncnc2n1C1CCCO1` (stereo not drawn) [Compound 206], for which the IC50 (in series [1]; in series [2] (72 hours); in series [3]; in [8]; in the series on melanoma cell line G-361 (72 hours); in series [9] (72 hours)) was > 50 µmol/L throughout. Moreover, the “GI20” value in series [5] was >100 µM. Also, in series [6], the “MDA (nmol/g FW)” value is recorded as 10.5 (±0.4) nmol/g FW. In series [7], the “Activity (%); (s.d.)” value was 110 (±3) %. Also, the “Concentration” value in [7] is reported as 10^−6-10^−4 mol/l.
`Oc1cccc(CNc2ncnc3c2nc(Br)n3C2CCCCO2)c1` (stereo not drawn) [Compound 29]: the IC50 (in [1]; in [2] (72 hours); in series [3]; in [8]; in the series with melanoma cell line G-361 (72 hours); in series [9] (72 hours)) was > 50 µmol/L throughout. Moreover, the “Activity (%) (s.d.), retention” value in series [4] is given as 117 (±2) %. Moreover, the “GI20” value in series [5] was >100 µM. Moreover, in series [6], the “MDA (nmol/g FW)” value is listed as 12.3 (±1.4) nmol/g FW. The “Activity (%); (s.d.)” value in series [7] is 112 (±3) %. Further, the “Concentration” value in series [7] is 10^−6-10^−4 mol/l.
